Assay [1] has as its target T1, HUM-8 (Caenorhabditis elegans, UniProt U4PBY2).
T1 construct: motor-neck domain residues 61-904, N-terminal 6xHis, C-terminal GSG linker + RGSIDTWV tag kept; co-expressed with human calmodulin in ExpiSf9; with Actin, alpha skeletal muscle (rabbit, Oryctolagus cuniculus); Calmodulin (human light chain, co-expressed)
T1 sequence (U4PBY2 61-904): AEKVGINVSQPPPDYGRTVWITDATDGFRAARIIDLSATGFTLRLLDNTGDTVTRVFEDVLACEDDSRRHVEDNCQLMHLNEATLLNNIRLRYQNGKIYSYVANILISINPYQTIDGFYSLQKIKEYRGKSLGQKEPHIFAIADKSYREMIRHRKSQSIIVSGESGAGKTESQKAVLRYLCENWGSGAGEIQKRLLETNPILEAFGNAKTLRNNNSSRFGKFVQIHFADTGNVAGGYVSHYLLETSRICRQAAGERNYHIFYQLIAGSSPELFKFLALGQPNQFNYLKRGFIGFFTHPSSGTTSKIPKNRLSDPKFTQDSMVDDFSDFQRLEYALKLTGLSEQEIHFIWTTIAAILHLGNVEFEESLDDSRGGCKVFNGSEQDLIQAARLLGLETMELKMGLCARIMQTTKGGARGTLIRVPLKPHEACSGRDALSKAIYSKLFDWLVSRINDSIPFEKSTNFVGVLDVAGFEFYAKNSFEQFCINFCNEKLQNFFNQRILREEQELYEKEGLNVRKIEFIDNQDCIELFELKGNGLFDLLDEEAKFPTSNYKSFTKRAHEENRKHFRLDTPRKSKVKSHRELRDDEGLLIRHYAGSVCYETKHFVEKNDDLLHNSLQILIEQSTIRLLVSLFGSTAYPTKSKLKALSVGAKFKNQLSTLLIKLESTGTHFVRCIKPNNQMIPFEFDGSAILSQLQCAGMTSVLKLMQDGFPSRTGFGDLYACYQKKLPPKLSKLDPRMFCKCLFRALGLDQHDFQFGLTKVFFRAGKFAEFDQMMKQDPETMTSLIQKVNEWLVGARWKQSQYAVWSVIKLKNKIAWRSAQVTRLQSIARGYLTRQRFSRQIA
Nature of the assay: stopped-flow pyrene-actin, ADP/ATP competition. It counts as binding. As to conditions: bound to pyrene-labelled rabbit F-actin; competition with ATP; pH 7.0, 20 °C, 25 mM KCl, 5 mM MgCl2, probably misprint for µM; read-out: affinity for ADP.

Assay [2] concerns the target T2, human MYO6 (Homo sapiens, UniProt Q9UM54).
T2 construct: with Actin, alpha skeletal muscle (rabbit, Oryctolagus cuniculus); Calmodulin (light chain)
Nature of the assay: stopped-flow pyrene-actin, ADP/ATP competition. As to conditions: bound to pyrene-labelled rabbit F-actin; competition with ATP; pH 7.0, 20 °C, 25 mM KCl, 5 mM MgCl2, probably misprint for µM; read-out: affinity for ADP. It counts as binding.

In assay [3] the target is T3, SPE-15/HUM-3 (Caenorhabditis elegans, UniProt Q9TZI9).
T3 construct: motor-neck domain residues 1-841, N-terminal 6xHis, C-terminal GSG linker + RGSIDTWV tag kept; co-expressed with human calmodulin in ExpiSf9; with Actin, alpha skeletal muscle (rabbit, Oryctolagus cuniculus); Calmodulin (human light chain, co-expressed)
T3 sequence (Q9TZI9 1-841): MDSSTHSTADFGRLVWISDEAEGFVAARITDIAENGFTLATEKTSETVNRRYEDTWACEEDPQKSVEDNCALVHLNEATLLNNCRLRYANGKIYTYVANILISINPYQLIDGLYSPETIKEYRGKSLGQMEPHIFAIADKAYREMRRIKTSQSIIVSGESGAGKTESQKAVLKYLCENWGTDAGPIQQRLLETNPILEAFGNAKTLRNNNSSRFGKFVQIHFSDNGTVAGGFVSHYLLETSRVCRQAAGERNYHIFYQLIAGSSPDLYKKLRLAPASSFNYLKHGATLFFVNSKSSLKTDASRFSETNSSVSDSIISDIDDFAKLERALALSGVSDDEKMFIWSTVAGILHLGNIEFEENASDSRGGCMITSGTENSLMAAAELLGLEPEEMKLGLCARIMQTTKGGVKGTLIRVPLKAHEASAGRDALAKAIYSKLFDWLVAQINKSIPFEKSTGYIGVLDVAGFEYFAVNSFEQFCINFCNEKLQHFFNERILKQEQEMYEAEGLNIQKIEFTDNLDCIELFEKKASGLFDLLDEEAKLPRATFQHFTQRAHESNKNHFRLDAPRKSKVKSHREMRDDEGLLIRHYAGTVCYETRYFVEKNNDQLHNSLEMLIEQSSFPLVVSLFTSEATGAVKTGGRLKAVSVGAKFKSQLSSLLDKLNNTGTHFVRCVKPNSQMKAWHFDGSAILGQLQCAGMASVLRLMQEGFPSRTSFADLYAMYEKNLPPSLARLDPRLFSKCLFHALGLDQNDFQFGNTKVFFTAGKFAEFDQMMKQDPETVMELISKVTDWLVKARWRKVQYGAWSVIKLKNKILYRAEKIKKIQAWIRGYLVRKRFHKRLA
Nature of the assay: stopped-flow pyrene-actin, ADP/ATP competition. It counts as binding. As to conditions: bound to pyrene-labelled rabbit F-actin; competition with ATP; pH 7.0, 20 °C, 25 mM KCl, 5 mM MgCl2, probably misprint for µM; read-out: affinity for ADP.

In assay [4] the target is T3, SPE-15/HUM-3. The experiment in a line: stopped-flow, ATP-induced dissociation of pyrene-actin.myosin. It counts as binding. As to conditions: bound to pyrene-labelled rabbit F-actin, pH 7.0, 20 °C, 25 mM KCl, 5 mM MgCl2, not an affinity.
The target in assay [5] is T1, HUM-8. The description is as above. As to conditions: bound to pyrene-labelled rabbit F-actin, pH 7.0, 20 °C, 25 mM KCl, 5 mM MgCl2, not an affinity. It counts as binding.
Assay [6] addresses T2, human MYO6. The description is as above. The format is binding. As to conditions: bound to pyrene-labelled rabbit F-actin, pH 7.0, 20 °C, 25 mM KCl, 5 mM MgCl2, not an affinity.
For assay [7], the target named is rabbit muscle actin, pyrene-labelled (F-actin) (rabbit) (UniProt P68135).
For assay [8] the target is unchanged. Nature of the assay: other fluorescence titration; stopped-flow; amplitude of ATP-induced dissociation of pyrene-actin.myosin against myosin concentration, quadratic fit; 20°C, 20 mM MOPS pH 7.0, 25 mM KCl, 5 mM MgCl2, 1 mM DTT.

Sequence of human MYO6 motor domain (Q9UM54 whole entry, the tested form may be a part): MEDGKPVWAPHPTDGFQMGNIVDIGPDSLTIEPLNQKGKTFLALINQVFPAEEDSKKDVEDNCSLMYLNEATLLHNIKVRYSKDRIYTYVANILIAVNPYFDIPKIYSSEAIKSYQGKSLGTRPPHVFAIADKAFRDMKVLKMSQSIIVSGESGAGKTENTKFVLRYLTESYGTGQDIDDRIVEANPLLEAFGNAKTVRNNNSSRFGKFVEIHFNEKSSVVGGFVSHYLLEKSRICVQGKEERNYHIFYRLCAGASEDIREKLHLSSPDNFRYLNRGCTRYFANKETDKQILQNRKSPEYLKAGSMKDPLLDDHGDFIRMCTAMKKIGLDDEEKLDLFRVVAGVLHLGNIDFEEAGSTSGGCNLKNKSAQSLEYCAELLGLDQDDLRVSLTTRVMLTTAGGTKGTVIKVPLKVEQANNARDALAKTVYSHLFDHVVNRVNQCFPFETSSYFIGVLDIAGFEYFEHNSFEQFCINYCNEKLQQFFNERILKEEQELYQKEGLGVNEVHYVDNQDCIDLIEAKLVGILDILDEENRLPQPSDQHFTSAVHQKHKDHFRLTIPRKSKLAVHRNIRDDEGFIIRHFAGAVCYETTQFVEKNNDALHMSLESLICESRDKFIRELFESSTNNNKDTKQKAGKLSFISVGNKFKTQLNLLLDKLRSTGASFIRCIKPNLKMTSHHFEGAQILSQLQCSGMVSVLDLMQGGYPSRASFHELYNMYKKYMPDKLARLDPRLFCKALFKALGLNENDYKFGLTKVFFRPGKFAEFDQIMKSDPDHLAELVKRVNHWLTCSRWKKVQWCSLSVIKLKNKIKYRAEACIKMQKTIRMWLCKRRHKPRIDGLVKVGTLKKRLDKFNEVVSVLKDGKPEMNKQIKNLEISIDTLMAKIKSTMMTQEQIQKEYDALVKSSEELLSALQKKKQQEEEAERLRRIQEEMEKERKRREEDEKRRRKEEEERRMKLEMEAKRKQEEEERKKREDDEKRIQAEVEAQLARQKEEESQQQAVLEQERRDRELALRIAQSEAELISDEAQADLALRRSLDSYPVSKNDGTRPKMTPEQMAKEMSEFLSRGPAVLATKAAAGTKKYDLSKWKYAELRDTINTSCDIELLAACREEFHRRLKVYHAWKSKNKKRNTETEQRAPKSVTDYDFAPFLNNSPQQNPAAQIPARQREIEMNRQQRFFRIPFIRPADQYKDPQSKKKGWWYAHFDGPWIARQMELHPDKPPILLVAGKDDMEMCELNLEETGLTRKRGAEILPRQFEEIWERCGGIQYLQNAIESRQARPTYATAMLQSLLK
T2 sequence (Q9UM54 1-840 limits assumed): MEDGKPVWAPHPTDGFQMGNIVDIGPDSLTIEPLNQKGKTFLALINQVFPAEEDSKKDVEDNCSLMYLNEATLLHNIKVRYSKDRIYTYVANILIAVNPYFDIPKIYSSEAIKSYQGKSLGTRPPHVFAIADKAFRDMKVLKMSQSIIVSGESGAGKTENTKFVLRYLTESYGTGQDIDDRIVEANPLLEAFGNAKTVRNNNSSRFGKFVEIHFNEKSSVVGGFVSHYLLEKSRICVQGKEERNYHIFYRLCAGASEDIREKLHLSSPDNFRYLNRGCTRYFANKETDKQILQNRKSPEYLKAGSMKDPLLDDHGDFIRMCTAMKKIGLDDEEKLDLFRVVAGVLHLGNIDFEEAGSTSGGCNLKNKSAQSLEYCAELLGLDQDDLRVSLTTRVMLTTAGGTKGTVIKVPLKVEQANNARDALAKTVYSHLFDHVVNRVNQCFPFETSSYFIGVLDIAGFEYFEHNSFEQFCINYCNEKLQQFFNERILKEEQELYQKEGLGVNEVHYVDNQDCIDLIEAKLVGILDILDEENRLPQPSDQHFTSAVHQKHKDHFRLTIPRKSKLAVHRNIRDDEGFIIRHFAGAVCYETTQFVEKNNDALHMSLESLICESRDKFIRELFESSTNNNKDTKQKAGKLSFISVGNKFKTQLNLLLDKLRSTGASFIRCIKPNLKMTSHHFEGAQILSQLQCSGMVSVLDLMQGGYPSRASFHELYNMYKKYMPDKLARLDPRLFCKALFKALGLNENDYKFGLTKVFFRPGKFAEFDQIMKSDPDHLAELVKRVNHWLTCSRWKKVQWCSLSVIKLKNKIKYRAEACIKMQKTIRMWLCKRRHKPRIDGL

`Nc1ncnc2c1ncn2[C@@H]1O[C@H](COP(=O)(O)OP(=O)(O)O)[C@@H](O)[C@H]1O` [ADP]: the Kd in assay [1] came to 20000 ± 2000 µM; in assay [2] it was 6000 ± 800 µM; in assay [3], 18000 ± 4000 µM.
As to `Nc1ncnc2c1ncn2[C@@H]1O[C@H](COP(=O)(O)OP(=O)(O)OP(=O)(O)O)[C@@H](O)[C@H]1O` [ATP], the “apparent second order rate constant for ATP binding” value in assay [4] was 9000 ± 800 M⁻¹ s⁻¹; in assay [5], 3000 ± 500 M⁻¹ s⁻¹; in assay [6], 5000 ± 400 M⁻¹ s⁻¹.
For the compound “human MYO6 motor domain (from UniProt Q9UM54 1-1294) (domain or fragment)”, the in vitro motility assay: gliding velocity of rhodamine-phalloidin labelled actin filaments on surface-immobilised myosin in assay [7] came out at 55 nm/s. Further, the Kd in assay [8] came out at 15 nM.

(Values after publication PMC11040104, “The two C. elegans class VI myosins, SPE-15/HUM-3 and HUM-8, share similar motor properties, but have distinct developmental and tissue expression patterns” (Frontiers in Physiology, 2024).)
